Laboratory results taken from patent US9861592B2, “Methods and compositions for treating neurodegenerative diseases” (Golden Biotechnology Corporation, priority 2012, dated 2018).
Converted amounts (≈) assume the structure as drawn.

Test system: PC12 cells
Assay: CCK-8 cell viability assay, titration of Compound 1 in NGF-induced PC12 cells
Type: cell-based
Conditions: Rattus norvegicus, PC-12, 48 h
Experimental: Rat pheochromocytoma PC12 cells, purchased from Bioresource Collection and Research Center (BCRC), were cultured in RPMI1640 medium (Gibco, MD) containing 10% fetal calf serum, 5% horse donor serum, 100 μg/ml streptomycin, 100 units/ml penicillin, 2 mM L-glutamine, and maintained in humidified incubator at 37° C. with 5% CO2. Cells were transferred twice a week. Experiments were carried out in 96-well plates coated with poly-D-lysine (1 mg/mL) to assist cell adhesion. PC12 cells were grown on medium with mouse submaxillary-gland nerve growth factor (NGF 2.5S, 100 ng/ml; Invitrogen, Carlsbad, Calif.) for 48 h to induce differentiation into neuron-like cells before all experiments conducted in this study.
To optimize the exemplary Compound 1 concentration for NGF-induced PC12 neural model, titration experiments were performed to determine the IC50 values of Compound 1 in PC12. PC12 Cells (1×10^4 cells) were incubated with various concentrations of Compound 1 (0.001, 0.01, 0.1, 1, 10, 100 μg/ml in a 10% serum-supplemented medium; 0.3, 1, 3, 10, 30, 100 μg/ml in serum-free medium) for 48 h.
The viability of cells was measured using the Cell Counting Kit-8 (CCK-8, Enzo, Life Sciences). A highly water-soluble tetrazolium salt, WST-8, is reduced by dehydrogenases in cells to give a yellow-colored product (formazan), which is soluble in the culture medium. The amount of the fomazan dye generated by the activity of dehydrogenases in cells is directly proportional to the number of living cells. After treatments, the CCK-8 solution was added to each well of plates and incubates the plate for 4 h in the incubator. The concentration of the formazan product was determined spectrophotometrically at an absorbance wavelength 450 nm and cell viability was expressed as a percentage of the corresponding control.

For `COC1=C(OC)C(O)C(C/C=C(\C)CC/C=C(\C)CCC=C(C)C)C(C)C1=O` (stereo not drawn) [Compound 1, 4-hydroxy-2,3-dimethoxy-6-methyl-5-(3,7,11-trimethyldodeca-2,6,10-trienyl)cyclohex-2-enone], the IC50 (PC12, 10% serum supplemented media, unit as printed in b23) was 58 µg/mL (≈ 148 µM), the IC50 (PC12, 10% serum supplemented media, unit as printed in b151) was 58 µg/mL (≈ 148 µM) and the IC50 (PC12, serum-free media) was 13.4 µg/mL (≈ 34.3 µM).
